7 compounds from patent US20210009542A1 (Calico Life Sciences LLC, priority 2018, published 2021) can be followed below.

The test system of assay [1] is Pan T cells isolated from C57BL6 splenocytes. In words: T cell function assay (IFNγ and TNFα in supernatants, MSD V-plex). The assay is classed as cell-based, mouse. Conditions: 30 μM compound, 3 days, supernatant. The method, then: (§1) Pan T cells were isolated from C57BL6 splenocytes using a MACS Pan T cell isolation kit II (Miltenyi Biotec, Auburn, Calif.) according to the manufacturer's instructions. Isolated T cells (200,000 cells/well in a 96 well flat-bottom plate) were cultured in RPMI 1640 supplemented with 10% FBS, […] 2-mercatoethanol, 100 U/mL penicillin, and 100 μg/mL streptomycin, and incubated with the indicated concentration of compound or DMSO in duplicates. After 1 hour, mouse T cell activator CD3/CD28 Dynabeads (ThermoFisher Scientific, Waltham, Mass.) were added at a 1:5 beads to cells ratio to stimulate the T cells for 2 or 3 days as outlined below. T cells with or without compound were incubated in the absence of T cell activator beads (media only) as control.
After 3 days of stimulation, supernatants were collected and IFNγ and TNFα in supernatants were assessed using an MSD V-plex assay (Meso Scale Discovery, Rockville, Md.).

Assay [2] shares this test system. In words: T cell activation assay (flow cytometry, CD25/CD69 on CD8 T cells). The assay is classed as cell-based, mouse. As to conditions: for % CD25 within CD8+ / % CD69 within CD8+ / CD25 MFI / CD69 MFI: 30 μM compound, 2 days; for T cell activation and T cell function: with TCR stimulation. The method, then:
as §1
After 2 days of stimulation, activation status of T cells was assessed by flow cytometry. T cells were first subjected to Zombie Violet™ Fixable Viability dye (BioLegend, San Diego, Calif.) for dead cell exclusion, washed and then stained with BUV805 labeled anti-CD8, APC-R700 labeled anti-CD25 (both from BD Biosciences, San Jose, Calif.) and PE labeled anti-CD69 (BioLegend, San Diego, Calif.) antibodies. After staining, cells were fixed with 2% paraformaldehyde and acquired on a BD LSRFortessa™ X-20 flow cytometer (BD Biosciences, San Jose, Calif.) using BD FACSDiva™ software. Data was analyzed using FlowJo V10 (Flow Jo LLC, Ashland, Oreg.). Dead cells were excluded and frequencies of activated CD8 T cells was reported as the frequency of CD25+ or CD69+ cells within the CD8+ population. The expression level of CD25 and CD69 indicates the activation status of cells on a per cell basis and was evaluated by the mean fluorescence intensities (MFI) of CD25 and CD69.
(In general: Flow cytometry measures light scatter and fluorescence of single cells or particles in a stream.)

For assay [3], the target named is T1, His tagged PTPN2 (TC45) protein (Homo sapiens, UniProt P17706).
T1 construct: made in house
T1 sequence (P17706 with tags, fused parts or gaps isoform P17706-2): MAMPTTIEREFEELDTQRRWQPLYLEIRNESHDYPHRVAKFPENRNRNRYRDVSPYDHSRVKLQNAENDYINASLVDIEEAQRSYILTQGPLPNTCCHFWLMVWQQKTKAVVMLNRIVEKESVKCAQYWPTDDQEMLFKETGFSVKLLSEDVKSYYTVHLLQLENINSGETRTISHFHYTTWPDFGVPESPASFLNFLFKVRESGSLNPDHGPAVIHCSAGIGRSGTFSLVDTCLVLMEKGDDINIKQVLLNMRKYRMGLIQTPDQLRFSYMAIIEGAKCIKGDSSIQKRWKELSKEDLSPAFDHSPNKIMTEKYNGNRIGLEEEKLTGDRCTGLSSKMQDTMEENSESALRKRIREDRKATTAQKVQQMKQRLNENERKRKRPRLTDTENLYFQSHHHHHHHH
In words: Mobility shift assay (MSA) for potency of PTPN2 inhibitors. The assay is classed as biochemical. Conditions: read-out: PTPN2 MSA IC50. Put shortly:
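His-tagged PTPN2 TC45 (0.5 nM) was preincubated with compound (12-point, 1:3) for 10 min at room temperature in 50 mM HEPES pH 7.5, 1 mM EGTA, 10 mM EDTA, 0.01% Tween 20, 2 mM DTT. OG488-labelled phospho-insulin-receptor peptide ([…]) was then added for 10 min. After quenching, dephosphorylation was measured by microfluidic mobility shift and IC50 derived from % inhibition.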

For assay [4], the system named is B16F10 mouse melanoma cells. In words: B16F10 IFNγ-induced cellular growth inhibition assay. Conditions: Mus musculus, B16-F10, 33 μM compound. It counts as cell-based. Put shortly:
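B16F10 cells (500/well, DMEM + 10% FBS) dosed in triplicate at 100 μM to 0.001 μM (0.1% DMSO) with or without 0.5 ng/mL final mouse IFNγ. Confluence imaged every 6 h for 5 days; % growth inhibition calculated versus DMSO/with-IFNγ control once DMSO/no-IFNγ wells exceeded 95% confluence.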

Assay [5] deals with T2, His tagged full-length PTP1B protein (Homo sapiens, UniProt P18031).
T2 construct: made in house
T2 sequence (P18031 with tags, fused parts or gaps): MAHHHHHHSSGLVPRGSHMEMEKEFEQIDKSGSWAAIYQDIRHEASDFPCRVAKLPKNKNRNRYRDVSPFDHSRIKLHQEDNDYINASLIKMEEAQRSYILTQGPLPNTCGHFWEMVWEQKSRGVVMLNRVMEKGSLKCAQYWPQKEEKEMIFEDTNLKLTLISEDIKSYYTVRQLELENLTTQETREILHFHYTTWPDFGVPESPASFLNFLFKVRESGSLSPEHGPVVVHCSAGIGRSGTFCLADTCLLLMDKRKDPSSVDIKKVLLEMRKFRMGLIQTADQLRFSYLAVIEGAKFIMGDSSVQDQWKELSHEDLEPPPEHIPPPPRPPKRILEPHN
Briefly: Mobility shift assay (MSA) for potency of PTP1B inhibitors. The assay is classed as biochemical. The method, then: The enzymatic assay used to determine activity is a mobility shift assay using a LabChip EZ Reader by Caliper Life Sciences. The enzymatic reaction was carried out in assay buffer (50 mM HEPES pH 7.5, 1 mM EGTA, 10 mM EDTA, 0.01% Tween® 20, and 2 mM DTT). […] The enzyme (at 0.5 nM) was incubated with compound for 10 minutes at room temperature. […] The % inhibition was then used to calculate the IC50 values.

Setting [6] is: anti-CD3/anti-CD28 Dynabeads (1:5 beads:cells).
Where [7] appears, read: +0.5 ng/mL IFNγ, relative to DMSO control, read-out: % B16F10 growth inhibition (+0.5 ng/mL IFNγ) @ 33 μM.
[8] abbreviates: no IFNγ, read-out: % B16F10 growth inhibition (no IFNγ) @ 33 μM.

Where two headings read alike, the source gives them in different places.

As a reminder, the IC50 is the concentration needed to halve the response being measured. Consider `O=C1CN(c2c(O)cc3ccc(C4=CCN(S(=O)(=O)C5CC5)C4)cc3c2F)S(=O)(=O)N1` [Compound 113, 5-{7-[1-(cyclopropanesulfonyl)-2,5-dihydro-1H-pyrrol-3-yl]-1-fluoro-3-hydroxynaphthalen-2-yl}-1λ^6,2,5-thiadiazolidine-1,1,3-trione], for which, in assay [1] (setting [6]), the “IFNγ” value was 356 ng/mL and the “TNFα” value came to 208 ng/mL. Besides, in assay [1] (no TCR stimulation), the “IFNγ” value worked out at 1.2 ng/mL and the “TNFα” value stood at 1.5 ng/mL. In addition, in assay [2] (setting [6]), the “% CD25 within CD8+” value is 44.55%, the “% CD69 within CD8+” value is on record as 73.95%, the “CD25 MFI” value is recorded as 1265 and the “CD69 MFI” value is 1891. For the same compound, in assay [2] (no TCR stimulation), the “% CD25 within CD8+” value is recorded as 0.49%, the “% CD69 within CD8+” value is 0.24%, the “CD25 MFI” value came to 51.7 and the “CD69 MFI” value was 28.8. For the same compound, the “T cell activation and T cell function” value in assay [2] is “increased both T cell activation and T cell function”. Moreover, the IC50 in assay [3] was less than 1 nM. Also, the inhibition at 33 µM in assay [4] (setting [7]) was more than 90%. In addition, in assay [4] (setting [8]), the inhibition at 33 µM is less than 25%.
With `O=C1CN(c2c(O)cc3ccc(OC(F)F)cc3c2F)S(=O)(=O)N1` [Compound 260, 5-[7-(difluoromethoxy)-1-fluoro-3-hydroxynaphthalen-2-yl]-1λ^6,2,5-thiadiazolidine-1,1,3-trione], in assay [1] (setting [6]), the “IFNγ” value was found to be 752 ng/mL and the “TNFα” value came to 207 ng/mL. Besides, in assay [1] (no TCR stimulation), the “IFNγ” value is recorded as 3.8 ng/mL and the “TNFα” value was 2.1 ng/mL. Further, in assay [2] (setting [6]), the “% CD25 within CD8+” value was found to be 39.60%, the “% CD69 within CD8+” value is given as 61.65%, the “CD25 MFI” value came out at 1085 and the “CD69 MFI” value was determined as 464.5. In addition, in assay [2] (no TCR stimulation), the “% CD25 within CD8+” value is recorded as 0.29%, the “% CD69 within CD8+” value was 0.17%, the “CD25 MFI” value worked out at 28.3 and the “CD69 MFI” value turned out to be 10.2. For the same compound, the “T cell activation and T cell function” value in assay [2] is “increased both T cell activation and T cell function”. The IC50 in assay [3] was in the range of 1 to 10 nM. In addition, the inhibition at 33 µM in assay [4] (setting [7]) was in the range of 25 to 59%. Besides, the inhibition at 33 µM in assay [4] (setting [8]) is less than 25%.
As to `O=C1CN(c2c(O)cc3ccc(C4=CCOC4)cc3c2F)S(=O)(=O)N1` [Compound 263, 5-[7-(2,5-dihydrofuran-3-yl)-1-fluoro-3-hydroxynaphthalen-2-yl]-1λ^6,2,5-thiadiazolidine-1,1,3-trione], the half-maximal inhibitory concentration (IC50) is less than 1 nM in assay [3] and more than 100 nM in assay [5]. Further, the inhibition at 33 µM in assay [4] (setting [7]) was 60 to 90%; in assay [4] (setting [8]), less than 25%.
`O=C1CN(c2c(O)cc3ccc(OCC4CCCOC4)cc3c2F)S(=O)(=O)N1` (stereo not shown) [Compound 271, 5-{1-fluoro-3-hydroxy-7-[(oxan-3-yl)methoxy]naphthalen-2-yl}-1λ^6,2,5-thiadiazolidine-1,1,3-trione]: the IC50 in assay [3] was less than 1 nM; in assay [5] it was more than 100 nM. The inhibition at 33 µM in assay [4] (setting [7]) was 60 to 90%; in assay [4] (setting [8]), less than 25%.
Take `O=C1CN(c2c(O)cc3ccc(OCCNS(=O)(=O)C4COC4)cc3c2F)S(=O)(=O)N1` [Compound 298, N-(2-{[8-fluoro-6-hydroxy-7-(1,1,4-trioxo-1λ^6,2,5-thiadiazolidin-2-yl)naphthalen-2-yl]oxy}ethyl)oxetane-3-sulfonamide]: the IC50 in assay [3] and in assay [5] was less than 1 nM each time. In addition, the inhibition at 33 µM in assay [4] (setting [7]) was more than 90%; in assay [4] (setting [8]), less than 25%.
As for `O=C1CN(c2c(O)cc3ccc(NC4CCN(S(=O)(=O)C5CC5)C4)cc3c2F)S(=O)(=O)N1` (stereo not shown) [Compound 306, 5-(7-{[1-(cyclopropanesulfonyl)pyrrolidin-3-yl]amino}-1-fluoro-3-hydroxynaphthalen-2-yl)-1λ^6,2,5-thiadiazolidine-1,1,3-trione], the results for the IC50 in assay [3] and in assay [5] were 1 to 10 nM and 10 to 100 nM, respectively. Further, the inhibition at 33 µM was 60 to 90% in assay [4] (setting [7]) and less than 25% in assay [4] (setting [8]).
As for `CS(=O)(=O)N1CCC(F)(COc2ccc3cc(O)c(N4CC(=O)NS4(=O)=O)c(F)c3c2)C1` (stereo not shown) [Compound 307, 5-(1-fluoro-7-{[3-fluoro-1-(methanesulfonyl)pyrrolidin-3-yl]methoxy}-3-hydroxynaphthalen-2-yl)-1λ^6,2,5-thiadiazolidine-1,1,3-trione], the IC50 in assay [3] and in assay [5] was 1 to 10 nM throughout. For the same compound, the inhibition at 33 µM in assay [4] (setting [7]) is 25 to 59%; in assay [4] (setting [8]), less than 25%.
